The text below walks through data of ChEMBL document CHEMBL3132769, “Fragment growing to retain or alter the selectivity of anchored kinase hinge-binding fragments” (Medchemcomm, 2014).

Assay [1] addresses Tyrosine-protein kinase ABL1 (Homo sapiens) (UniProt P00519). The experiment in a line: Inhibition of human full-length ABL expressed in baculovirus assessed as substrate phosphorylation using fluorescence-labelled peptides as substrate at 8 uM after 90 mins by microfluidic peptide phosphorylation assay.
The target of assay [2] is T1, Interleukin-1 receptor-associated kinase 4 (Homo sapiens) (UniProt Q9NWZ3).
T1 sequence (whole entry): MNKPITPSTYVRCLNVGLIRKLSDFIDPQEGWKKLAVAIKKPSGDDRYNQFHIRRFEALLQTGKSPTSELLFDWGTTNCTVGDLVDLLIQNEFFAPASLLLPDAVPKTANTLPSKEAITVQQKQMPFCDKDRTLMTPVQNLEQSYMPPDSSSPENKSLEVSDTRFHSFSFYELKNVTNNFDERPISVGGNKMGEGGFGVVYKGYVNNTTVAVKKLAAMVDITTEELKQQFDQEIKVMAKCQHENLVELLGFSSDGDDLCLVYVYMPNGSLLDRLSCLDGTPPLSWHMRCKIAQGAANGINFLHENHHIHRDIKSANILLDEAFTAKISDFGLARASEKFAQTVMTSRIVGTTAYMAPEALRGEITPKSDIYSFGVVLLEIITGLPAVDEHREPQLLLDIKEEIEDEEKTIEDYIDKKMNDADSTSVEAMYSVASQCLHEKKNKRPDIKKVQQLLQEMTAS
The experiment in a line: Inhibition of human IRAK4 catalytic domain expressed in baculovirus assessed as substrate phosphorylation using fluorescence-labelled peptides as substrate at 0.1 uM after 90 mins by microfluidic peptide phosphorylation assay.

The target in assay [3] is Fibroblast growth factor receptor 3 (Homo sapiens) (UniProt P22607). The experiment in a line: Inhibition of human FGFR3 catalytic domain expressed in baculovirus assessed as substrate phosphorylation using fluorescence-labelled peptides as substrate at 0.1 uM after 90 mins by microfluidic peptide phosphorylation assay.
For assay [4], the target named is T2, Mitogen-activated protein kinase 13 (Homo sapiens) (UniProt O15264).
T2 sequence (whole entry): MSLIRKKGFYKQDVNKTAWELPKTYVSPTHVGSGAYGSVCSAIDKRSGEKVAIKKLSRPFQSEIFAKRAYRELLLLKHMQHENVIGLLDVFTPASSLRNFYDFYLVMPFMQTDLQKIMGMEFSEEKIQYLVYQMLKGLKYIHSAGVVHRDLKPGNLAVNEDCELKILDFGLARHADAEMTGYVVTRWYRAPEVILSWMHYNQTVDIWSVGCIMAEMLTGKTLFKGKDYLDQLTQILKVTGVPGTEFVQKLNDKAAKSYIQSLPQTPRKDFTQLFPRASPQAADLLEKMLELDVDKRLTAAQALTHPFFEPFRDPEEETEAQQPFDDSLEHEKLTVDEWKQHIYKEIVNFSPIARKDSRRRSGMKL
The experiment in a line: Inhibition of human full length p38 delta expressed in Escherichia coli cell assessed as substrate phosphorylation using fluorescence-labelled peptides as substrate at 0.1 uM after 90 mins by microfluidic peptide phosphorylation assay.

Assay [5] concerns the target T3, cGMP-dependent protein kinase 1 (Homo sapiens) (UniProt Q13976).
T3 sequence (whole entry): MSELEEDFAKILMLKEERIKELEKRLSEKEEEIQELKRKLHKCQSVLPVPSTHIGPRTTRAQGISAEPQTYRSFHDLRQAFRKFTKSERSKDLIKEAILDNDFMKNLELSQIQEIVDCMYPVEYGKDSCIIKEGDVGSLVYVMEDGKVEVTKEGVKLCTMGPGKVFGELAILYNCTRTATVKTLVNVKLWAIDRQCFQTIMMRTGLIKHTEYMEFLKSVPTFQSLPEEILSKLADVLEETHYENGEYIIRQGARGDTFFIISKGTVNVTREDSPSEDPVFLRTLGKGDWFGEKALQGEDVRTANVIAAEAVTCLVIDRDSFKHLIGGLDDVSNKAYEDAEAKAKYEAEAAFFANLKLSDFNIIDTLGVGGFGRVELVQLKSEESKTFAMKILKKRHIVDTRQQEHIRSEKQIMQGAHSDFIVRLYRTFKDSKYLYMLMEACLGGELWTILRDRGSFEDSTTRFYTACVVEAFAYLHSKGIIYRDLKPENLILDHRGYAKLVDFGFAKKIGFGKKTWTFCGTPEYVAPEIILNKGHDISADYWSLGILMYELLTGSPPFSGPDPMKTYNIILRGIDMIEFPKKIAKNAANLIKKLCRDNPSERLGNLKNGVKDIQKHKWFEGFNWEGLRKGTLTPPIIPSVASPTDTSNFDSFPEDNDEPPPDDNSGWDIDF
The experiment in a line: Inhibition of human full length PKG-1a expressed in baculovirus assessed as substrate phosphorylation using fluorescence-labelled peptides as substrate at 0.06 uM after 90 mins by microfluidic peptide phosphorylation assay.

In assay [6] the test system is Tyrosine-protein kinase ABL1 (Homo sapiens), P00519 [Q252H]. The experiment in a line: Inhibition of human truncated ABL Q252H mutant expressed in baculovirus assessed as substrate phosphorylation using fluorescence-labelled peptides as substrate at 0.06 uM after 90 mins by microfluidic peptide phosphorylation assay.
Assay [7] concerns Tyrosine-protein kinase ABL1 (Homo sapiens), P00519 [T315I]. The experiment in a line: Inhibition of human truncated ABL T315I mutant expressed in baculovirus assessed as substrate phosphorylation using fluorescence-labelled peptides as substrate at 9 uM after 90 mins by microfluidic peptide phosphorylation assay.
The target in assay [8] is T4, Testis-specific serine/threonine-protein kinase 1 (Homo sapiens) (UniProt Q9BXA7).
T4 sequence (whole entry): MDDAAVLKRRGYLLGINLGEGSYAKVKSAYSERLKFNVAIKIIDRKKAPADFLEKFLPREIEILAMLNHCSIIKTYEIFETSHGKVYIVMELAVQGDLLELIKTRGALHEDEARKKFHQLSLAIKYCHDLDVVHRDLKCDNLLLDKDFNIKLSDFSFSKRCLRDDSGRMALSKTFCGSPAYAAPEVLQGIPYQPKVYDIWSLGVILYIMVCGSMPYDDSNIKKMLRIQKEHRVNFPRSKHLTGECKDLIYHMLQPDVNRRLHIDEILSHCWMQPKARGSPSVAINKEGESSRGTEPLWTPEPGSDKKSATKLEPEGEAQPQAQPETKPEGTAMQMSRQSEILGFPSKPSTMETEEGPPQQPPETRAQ
The experiment in a line: Inhibition of human full length TSSK1 expressed in baculovirus assessed as substrate phosphorylation using fluorescence-labelled peptides as substrate at 95 uM after 90 mins by microfluidic peptide phosphorylation assay.

Assay [9] has as its target Casein kinase I isoform delta (Homo sapiens) (UniProt P48730). The experiment in a line: Inhibition of human CK1D catalytic domain expressed in Escherichia coli cell assessed as substrate phosphorylation using fluorescence-labelled peptides as substrate at 95 uM after 90 mins by microfluidic peptide phosphorylation assay.
The target of assay [10] is Calcium/calmodulin-dependent protein kinase type II subunit beta (Homo sapiens) (UniProt Q13554). The experiment in a line: Inhibition of human CAMK2 beta catalytic domain expressed in baculovirus assessed as substrate phosphorylation using fluorescence-labelled peptides as substrate at 1000 uM after 90 mins by microfluidic peptide phosphorylation assay.
Assay [11] addresses Tyrosine-protein kinase Fer (Homo sapiens) (UniProt P16591). The experiment in a line: Inhibition of human FER catalytic domain expressed in baculovirus assessed as substrate phosphorylation using fluorescence-labelled peptides as substrate at […] after 90 mins by microfluidic peptide phosphorylation assay.

Calcium/calmodulin-dependent protein kinase type II subunit beta (Homo sapiens), sequence (Q13554 whole entry, the tested form may be a part): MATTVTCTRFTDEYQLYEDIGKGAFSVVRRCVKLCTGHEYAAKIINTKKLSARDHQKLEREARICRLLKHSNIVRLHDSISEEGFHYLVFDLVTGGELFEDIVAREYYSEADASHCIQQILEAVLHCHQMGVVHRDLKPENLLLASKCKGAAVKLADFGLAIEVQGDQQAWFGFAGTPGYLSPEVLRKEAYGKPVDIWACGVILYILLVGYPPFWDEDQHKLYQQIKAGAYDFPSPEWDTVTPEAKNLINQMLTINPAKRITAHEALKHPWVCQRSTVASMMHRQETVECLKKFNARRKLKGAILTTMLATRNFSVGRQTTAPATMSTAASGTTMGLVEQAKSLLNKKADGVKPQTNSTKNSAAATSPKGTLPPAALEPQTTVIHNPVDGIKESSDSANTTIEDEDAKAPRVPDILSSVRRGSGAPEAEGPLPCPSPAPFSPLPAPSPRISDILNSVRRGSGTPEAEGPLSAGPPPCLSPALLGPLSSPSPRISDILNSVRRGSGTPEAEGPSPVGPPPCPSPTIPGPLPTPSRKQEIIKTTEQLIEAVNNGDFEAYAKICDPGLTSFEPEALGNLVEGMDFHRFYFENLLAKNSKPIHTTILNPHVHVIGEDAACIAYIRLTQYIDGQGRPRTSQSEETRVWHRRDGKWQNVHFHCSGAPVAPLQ
Tyrosine-protein kinase Fer (Homo sapiens), sequence (P16591 whole entry, looked up, the tested form may be a part): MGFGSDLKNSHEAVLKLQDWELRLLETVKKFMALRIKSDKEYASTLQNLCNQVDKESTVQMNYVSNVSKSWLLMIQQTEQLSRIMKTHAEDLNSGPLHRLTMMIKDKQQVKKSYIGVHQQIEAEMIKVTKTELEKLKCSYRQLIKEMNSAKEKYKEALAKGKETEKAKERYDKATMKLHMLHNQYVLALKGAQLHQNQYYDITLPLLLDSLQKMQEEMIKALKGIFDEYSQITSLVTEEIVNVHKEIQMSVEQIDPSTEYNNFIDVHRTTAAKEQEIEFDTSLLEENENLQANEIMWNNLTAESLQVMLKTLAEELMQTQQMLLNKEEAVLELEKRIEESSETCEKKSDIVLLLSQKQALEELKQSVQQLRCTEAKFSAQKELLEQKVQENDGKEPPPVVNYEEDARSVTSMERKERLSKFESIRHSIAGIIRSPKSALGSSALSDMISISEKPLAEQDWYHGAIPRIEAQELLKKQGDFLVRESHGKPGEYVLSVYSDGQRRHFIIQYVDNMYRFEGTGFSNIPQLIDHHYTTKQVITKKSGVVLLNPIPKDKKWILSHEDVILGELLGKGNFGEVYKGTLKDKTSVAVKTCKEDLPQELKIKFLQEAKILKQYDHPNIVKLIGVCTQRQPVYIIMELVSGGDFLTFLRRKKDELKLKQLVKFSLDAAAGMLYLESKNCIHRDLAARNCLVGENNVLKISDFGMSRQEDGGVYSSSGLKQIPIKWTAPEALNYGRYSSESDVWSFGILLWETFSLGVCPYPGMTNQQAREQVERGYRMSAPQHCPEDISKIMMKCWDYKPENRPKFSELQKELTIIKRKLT
Fibroblast growth factor receptor 3 (Homo sapiens), sequence (P22607 23-806 limits assumed): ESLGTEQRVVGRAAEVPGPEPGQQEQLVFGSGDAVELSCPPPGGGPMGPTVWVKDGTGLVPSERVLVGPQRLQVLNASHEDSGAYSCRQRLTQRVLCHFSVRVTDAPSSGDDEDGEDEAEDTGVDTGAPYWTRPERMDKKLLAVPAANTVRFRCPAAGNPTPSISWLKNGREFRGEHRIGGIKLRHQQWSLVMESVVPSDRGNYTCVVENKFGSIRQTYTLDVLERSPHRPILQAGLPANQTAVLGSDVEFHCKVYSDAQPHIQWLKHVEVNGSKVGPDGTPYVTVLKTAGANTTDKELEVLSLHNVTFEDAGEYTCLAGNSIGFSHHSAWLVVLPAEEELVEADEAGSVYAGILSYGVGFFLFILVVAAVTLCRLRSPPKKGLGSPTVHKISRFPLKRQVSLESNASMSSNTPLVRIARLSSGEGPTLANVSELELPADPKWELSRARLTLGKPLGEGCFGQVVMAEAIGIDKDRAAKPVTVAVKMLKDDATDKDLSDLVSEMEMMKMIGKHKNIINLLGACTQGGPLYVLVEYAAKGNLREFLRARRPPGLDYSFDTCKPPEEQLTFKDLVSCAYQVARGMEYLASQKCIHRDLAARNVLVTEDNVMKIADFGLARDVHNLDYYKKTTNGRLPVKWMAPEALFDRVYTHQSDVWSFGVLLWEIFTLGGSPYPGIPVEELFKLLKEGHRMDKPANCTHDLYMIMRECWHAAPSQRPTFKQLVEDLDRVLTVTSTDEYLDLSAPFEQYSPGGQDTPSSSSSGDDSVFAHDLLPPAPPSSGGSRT
Casein kinase I isoform delta (Homo sapiens), sequence (P48730 whole entry, looked up, the tested form may be a part, canonical isoform): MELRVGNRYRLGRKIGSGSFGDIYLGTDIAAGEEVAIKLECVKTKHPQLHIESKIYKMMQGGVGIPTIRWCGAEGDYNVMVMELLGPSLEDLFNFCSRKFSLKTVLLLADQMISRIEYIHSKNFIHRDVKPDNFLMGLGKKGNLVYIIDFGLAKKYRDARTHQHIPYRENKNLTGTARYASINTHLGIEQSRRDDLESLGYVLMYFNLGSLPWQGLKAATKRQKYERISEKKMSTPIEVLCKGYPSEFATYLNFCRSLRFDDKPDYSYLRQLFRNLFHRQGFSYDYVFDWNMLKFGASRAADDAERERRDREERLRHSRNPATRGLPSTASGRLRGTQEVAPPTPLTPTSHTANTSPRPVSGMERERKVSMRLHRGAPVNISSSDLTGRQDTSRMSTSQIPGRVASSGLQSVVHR

Broadly, the inhibition is the percentage by which the read-out fell short of the control. `NCC1CCN(c2ncnc3[nH]ccc23)CC1`: in [1], the inhibition worked out at 57.5%.

As for `C[C@H](CN(C)C)Oc1nc(Nc2cc3cccc(Cl)c3cn2)cnc1C#N`, the inhibition in assay [2] is 11.5%; in assay [3], 5.5%; in assay [4] it was 2.5%. Take `NC1(Cc2ccc(Cl)cc2)CCN(c2ncnc3[nH]ccc23)CC1`: the inhibition in assay [5] and in [6] was 0% in each case. In the case of `NCC1CN(c2ncnc3[nH]c4cnccc4c23)CCO1` (stereo unspecified), the inhibition in assay [7] came out at 10%. For the compound `NCCc1ccc(-c2ncnc3[nH]cnc23)cc1`, the inhibition in assay [8] is 89%; in assay [9], 77.5%. Regarding `c1cnc2[nH]ccc2c1`, the inhibition in assay [10] turned out to be 30%.

`COC(=O)c1cnc(Nc2cnc(C#N)cn2)cc1NCC1CCNCC1`: in assay [11], the inhibition worked out at 1%.
